For twelve molecules, IC50 and Ki results are on record in ChEMBL document CHEMBL1137157, “Synthesis and biological activity of 2-anilino-4-(1H-pyrrol-3-yl) pyrimidine CDK inhibitors” (Bioorg Med Chem Lett, 2004).

One experiment has as its system Cell line. Briefly: inhibitory concentration for anti-proliferative activity against A549 and […] human tumor cell lines was determined. Type of experiment: functional, cell-based.
Experiment [1] has as its target Cyclin-dependent kinase 2 (Homo sapiens, UniProt P24941). Briefly: Inhibition of Cyclin dependent kinase 2.
Experiment [2] concerns the target Cyclin-dependent kinase 4 (Homo sapiens, UniProt P11802). Briefly: Inhibition of Cyclin dependent kinase 4.

Cyclin-dependent kinase 4, sequence (P11802 whole entry): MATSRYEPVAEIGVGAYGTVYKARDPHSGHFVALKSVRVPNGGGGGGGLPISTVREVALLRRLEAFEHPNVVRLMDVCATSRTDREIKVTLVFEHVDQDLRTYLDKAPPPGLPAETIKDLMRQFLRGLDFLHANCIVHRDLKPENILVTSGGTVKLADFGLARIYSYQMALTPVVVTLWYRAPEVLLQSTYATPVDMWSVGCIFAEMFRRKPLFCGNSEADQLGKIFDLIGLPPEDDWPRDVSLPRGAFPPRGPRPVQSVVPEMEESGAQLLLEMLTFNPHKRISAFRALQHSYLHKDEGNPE

As to `Cc1ccc(Nc2nccc(-c3c(C)[nH]c(C#N)c3C)n2)cc1[N+](=O)[O-]`, the half-maximal inhibitory concentration (IC50) in the experiment on Cell line was found to be 380 nM.

In the experiment with Cell line, `Cc1[nH]c(C#N)c(C)c1-c1ccnc(Nc2ccc(O)cc2)n1` registered a 50% inhibitory concentration (IC50) of 1360 nM.

With `Cc1[nH]c(Br)c(C)c1-c1ccnc(Nc2ccc(F)cc2)n1`, the IC50 in the experiment with Cell line is 16000 nM. Besides, in experiment [1], the affinity corresponds to a Ki of 270 nM.

Take `Cc1cc(Nc2nccc(-c3c(C)[nH]c(C#N)c3C)n2)ccc1F`: affinity in experiment [2] was put at a Ki of 300 nM. This molecule showed a half-inhibitory concentration (IC50) in the experiment with Cell line of 890 nM.

Molecule `Cc1[nH]c(C#N)c(C)c1-c1ccnc(Nc2ccc(F)cc2)n1` displayed an IC50 with Cell line of 2440 nM. Also, in experiment [1], the inhibitory constant (Ki) was found to be 100 nM.

Consider `Cc1[nH]c(C#N)c(C)c1-c1ccnc(Nc2cccc([N+](=O)[O-])c2)n1`, for which the IC50 with Cell line came to 360 nM.

In turn, `Cc1ccc(Nc2nccc(-c3c(C)[nH]c(C#N)c3C)n2)cc1O` returned an IC50 in the experiment with Cell line of 1170 nM.

Turning to `Cc1[nH]c(C#N)c(C)c1-c1ccnc(Nc2cccc(O)c2)n1`, the IC50 in the experiment with Cell line worked out at 1840 nM. In addition, the inhibition constant (Ki) in experiment [1] came out at 30 nM.

With `Cc1[nH]c(C(N)=O)c(C)c1-c1ccnc(Nc2ccc(F)cc2)n1`, the inhibition constant Ki in experiment [2] stood at 420 nM. This molecule also came in with an IC50 with Cell line of 1640 nM.

In experiment [2], `Cc1c[nH]c(C)c1-c1ccnc(Nc2cccc([N+](=O)[O-])c2)n1` gave a Ki of 4170 nM.

Regarding `Cc1[nH]c([N+](=O)[O-])c(C)c1-c1ccnc(Nc2ccc(F)cc2)n1`, the Ki in experiment [2] is 120 nM. In the experiment with Cell line, this molecule came in with an IC50 of 3120 nM.

`Cc1[nH]c(Cl)c(C)c1-c1ccnc(Nc2ccc(F)cc2)n1` gave an IC50 with Cell line of 13000 nM. Besides, the inhibition constant Ki in experiment [1] was 360 nM.

The IC50 is the concentration at which inhibition is half-maximal. High values mean lower potency, low ones higher potency. The Ki is a dissociation constant, usually derived from enzyme kinetics or from competition with a known ligand. A lower Ki goes with tighter binding.
